Consider 4 molecules from ChEMBL document CHEMBL1201862, “PubChem BioAssay data set” (2004).

Each structure is given as a SMILES string.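 1) Cells in 96-well plates. 2) Compound, 48 h, 5 concentrations. 3) Linear interpolation between surrounding doses. 4) Unreached endpoint = highest concentration. GI50: concentration for 50% inhibition of growth.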 Active and inactive are the calls of the source. Cut-off read from the data, not from the text of the source: active = GI50 up to about 1.1 µM and inactive = higher. Some results are limits rather than exact numbers.

Test systems include TK-10; MDA-N; HCT-15; HCT-116; SN12C; UACC-257; IGROV-1; SF-539; SF-295; UO-31; LOX IMVI; CAKI-1; SK-MEL-5; SW-620; MOLT-4; KM12; UACC-62; OVCAR-8; ACHN; NCI-H23.
Common to all, as to assay: growth of human tumour cells (NCI), 48 h

In the case of `Cc1nc(-c2cc3c(ccc4ccccc43)oc2=O)cs1`, the GI50 in the test with TK-10 is 46.7 µM (inactive); in the test on MDA-N, > 100 µM (inactive); in the test on HCT-15, greater than 100 µM; with HCT-116, > 100 µM (inactive); in the test on SN12C, > 100 µM (inactive); in the test on UACC-257, > 100 µM (inactive). Besides, the GI50 in the test with IGROV-1 is 21.5 µM (inactive); with SF-539 it was 43.3 µM (inactive); in the test on SF-295 it was 41.8 µM (inactive); with UO-31, 46.3 µM (inactive); with LOX IMVI, > 100 µM (inactive); with CAKI-1, > 100 µM (inactive). Further, the GI50 in the test on SK-MEL-5 is > 100 µM (inactive); with SW-620, > 100 µM (inactive); in the test with MOLT-4, > 100 µM (inactive); in the test with KM12, > 100 µM (inactive); in the test on UACC-62, 26 µM (inactive); with OVCAR-8, 35.5 µM (inactive). Also, in the test on ACHN, the GI50 is 63.7 µM (inactive).
For `O=C(Cc1nccc2c1[nH]c1ccccc12)OC1C#CCSCC#C/C=C\1` (configuration not stated), the GI50 with TK-10 is > 100 µM (inactive); in the test on MDA-N it was > 100 µM (inactive); in the test with HCT-15, greater than 100 µM; with HCT-116, 50 µM (inactive); in the test with SN12C, > 100 µM (inactive); with UACC-257, > 100 µM (inactive). In addition, the GI50 is > 100 µM (inactive) in the test with IGROV-1; > 100 µM (inactive) in the test with SF-539; 87.9 µM (inactive) in the test on SF-295; 71.4 µM (inactive) with UO-31; 57.9 µM (inactive) in the test with LOX IMVI; > 100 µM (inactive) in the test with CAKI-1. Also, the GI50 with SK-MEL-5 was > 100 µM (inactive); with SW-620, > 100 µM (inactive); in the test on MOLT-4, 39.5 µM (inactive); in the test on KM12, > 100 µM (inactive); in the test with UACC-62, > 100 µM (inactive); in the test with OVCAR-8 it was > 100 µM (inactive). In the test with ACHN, the GI50 is > 100 µM (inactive).
With `O=C1C(Cl)C2(CC(/C=C/c3ccccc3)=NN2c2cccc(S(=O)(=O)O)c2)N1c1nc2ccccc2s1` (configuration not stated), the GI50 was 16.9 µM (inactive) in the test on TK-10; 24.2 µM (inactive) in the test on MDA-N; 15.9 µM in the test on HCT-15; 21.1 µM (inactive) in the test on HCT-116; 17.2 µM (inactive) in the test on SN12C; 17.8 µM (inactive) in the test with UACC-257. Further, the GI50 was 8.55 µM (inactive) in the test on IGROV-1; 15.3 µM (inactive) in the test with SF-539; 4.32 µM (inactive) with UO-31; 2.79 µM (inactive) in the test on LOX IMVI; 9.46 µM (inactive) in the test with CAKI-1; 13.2 µM (inactive) in the test on NCI-H23. Moreover, the GI50 in the test on SK-MEL-5 was 15.5 µM (inactive); with SW-620, 28.8 µM (inactive); with MOLT-4, 20.7 µM (inactive); with KM12, 16.3 µM (inactive); in the test on UACC-62, 14 µM (inactive); with OVCAR-8, 11.9 µM (inactive). The GI50 in the test with ACHN was 16.6 µM (inactive).
Turning to `Oc1cc2c3c(c1)c1cc4c(cc1c[n+]3CC2)OCO4`, the GI50 was 13 µM (inactive) with TK-10; 8.63 µM (inactive) with MDA-N; 13.6 µM in the test on HCT-15; 1.55 µM (inactive) in the test with HCT-116; 1.29 µM (inactive) in the test on SN12C; 8.83 µM (inactive) with UACC-257. For the same molecule, the GI50 with IGROV-1 was 2.4 µM (inactive); in the test with SF-539, 2.28 µM (inactive); with SF-295, 2.97 µM (inactive); in the test with UO-31, 5.42 µM (inactive); in the test on LOX IMVI, 1.63 µM (inactive); in the test on CAKI-1 it was 10.2 µM (inactive). The GI50 is 1.9 µM (inactive) with NCI-H23; 4.97 µM (inactive) in the test on SK-MEL-5; 2.86 µM (inactive) in the test with SW-620; 0.242 µM (active) in the test on MOLT-4; 1.82 µM (inactive) with KM12; 7.83 µM (inactive) in the test with UACC-62. Also, the GI50 with OVCAR-8 is 0.748 µM (active); with ACHN, 3.1 µM (inactive).
